# Assay results as given in patent US8071645B2, “Systems and methods for treating human inflammatory and proliferative diseases and wounds, with fatty acid metabolism inhibitors and/or glycolytic inhibitors” (The Regents of the University of Colorado, priority 2003, dated 2011).
# Assays:
# Assay type in all cases: cell-based
# [1] = system: cell-surface Fas on drug resistant L1210/DDP cells; assay: cell-surface Fas expression on L1210/DDP cells by flow cytometry
# Method: (§1) Flow Cytometry. Cells were harvested, counted, and resuspended at 10^6 cells/100 μl of PBS containing 2.5% fetal calf serum in preparation for flow cytometric analysis. Cells were stained for intracellular H202 using 6-carboxy-2′,7′-dichlorodihydrofluorescein diacetate (DCF-DA, Molecular Probes, Eugene, Oreg.). Briefly, cells were incubated at 37° with 1 mM DCF-DA for 20 minutes, washed twice in PBS containing 2.5% fetal calf serum and analyzed flow cytometrically. Mitochondrial membrane potential was assessed using Mitotracker Red (CM-H2XROS, Molecular Probes, Eugene, Oreg.). […] The cells were incubated at 37° for 20 minutes, washed twice in PBS containing 2.5% fetal calf serum and analyzed flow cytometrically. Data were acquired on a Coulter Elite Epics or Excel flow cytometer (Coulter, Hialeah, Fla.) and analyzed with CellQuest software, (Becton Dickinson, San Jose, Calif.). […] Each sample population was classified for cell size (forward scatter) and complexity (side scatter), gated on a population of interest and evaluated using 5,000 cells. […]
# Drug sensitive L1210 cells and drug resistant L1210/DDP cells were cultured with etomoxir for 24 hours (Tx indicates treatment with etomoxir). The level of cell-surface Fas was determined using fluorochrome conjugated anti-Fas antibodies and flow cytometry. The Fas levels are measured relative to a control for staining artifacts. […]
# [2] = system: human leukemia RU937 cells; assay: mitochondrial membrane potential (MitoTracker) of RU937 cells; conditions: 24 hours of incubation, FIG. 13
# Method: Flow Cytometry. Cells were harvested, counted, and resuspended at 10^6 cells/100 μl of PBS containing 2.5% fetal calf serum in preparation for flow cytometric analysis. Cells were stained for intracellular H202 using 6-carboxy-2′,7′-dichlorodihydrofluorescein diacetate (DCF-DA, Molecular Probes, Eugene, Oreg.). Briefly, cells were incubated at 37° with 1 mM DCF-DA for 20 minutes, washed twice in PBS containing 2.5% fetal calf serum and analyzed flow cytometrically. Mitochondrial membrane potential was assessed using Mitotracker Red (CM-H2XROS, Molecular Probes, Eugene, Oreg.). The cells were resuspended in PBS containing 2.5% fetal calf serum containing a final concentration of 0.5 micromolar Mitotracker dye. The cells were incubated at 37° for 20 minutes, washed twice in PBS containing 2.5% fetal calf serum and analyzed flow cytometrically. Data were acquired on a Coulter Elite Epics or Excel flow cytometer (Coulter, Hialeah, Fla.) and analyzed with CellQuest software, (Becton Dickinson, San Jose, Calif.). […] Each sample population was classified for cell size (forward scatter) and complexity (side scatter), gated on a population of interest and evaluated using 5,000 cells. […]
# The effects of etomoxir on human leukemia RU937 cells was determined. […]
# [3] = system: L1210 DDP cells; assay: mitochondrial membrane potential (MitoTracker) of L1210 DDP cells; conditions: 24 hours of incubation, FIG. 11
# Method: as §1
# We measured the effects of etomoxir on metabolism by measuring mitochondrial membrane potential with a fluorescent dye (Mitotracker Red, Molecular Probes, Eugene, Oreg.) which fluoresces as a function of mitochondrial potential. […]
smiles,measurement,setting,value
"CCOC(=O)C1(CCCCCCOc2ccc(Cl)cc2)CO1 (stereo not shown) [etomoxir, 2-(6-(4-chlorophenoxy)-hexyl)-oxirane-2-carboxylic acid ethyl ester]",cell surface Fas,"[1]; L1210/DDP, cultured with etomoxir for 24 hours, FIG. 7",significant increases
same,cell surface Fas on methotrexate-treated cells,"[1]; L1210 DDP, etomoxir with methotrexate, FIG. 8",promotes increases
same,levels of mitochondrial membrane potential (MitoTracker),[2],increased
same,mitochondrial membrane potential (MitoTracker),[3],increase
